Assay type in all cases: cell-based
The test system of one assay is Ent. cloacae MA2646. Put plainly: in vitro antibacterial activity, microtitration dilution (MIC), Ent. cloacae MA2646. The following applies: Enterobacter cloacae, read-out: minimum inhibiting concentration (MIC). The source says: (§1) The in vitro antibacterial activity, is obtained by the microtitration dilution method as described in Heifetz, et al., Antimicr. Agents & Chemother., 6, 124 (1974), which is incorporated herein by reference.
(§2) By use of the above methods, the following minimum inhibiting concentration values (MICs in μg/mL), PD50 's in mg/kg, no effect phototoxicity dose in mg/kg and the cytotoxicity IC50 in μg/mL were obtained for representative enantiomers of the invention and compounds of the prior art as shown in the table.

In a further assay the test system is Esch. coli Vogel. The assay is described as follows: in vitro antibacterial activity, microtitration dilution (MIC), Esch. coli Vogel. The following applies: Escherichia coli, read-out: minimum inhibiting concentration (MIC).
Text: as §1, §2

For a further assay, the system named is Klebs. pneumoniae MGH-2. Put plainly: in vitro antibacterial activity, microtitration dilution (MIC), Klebs. pneumoniae MGH-2. The following applies: Klebsiella pneumoniae, MGH2, read-out: minimum inhibiting concentration (MIC).
Text: as §1, §2

For a further assay, the system named is Prot. rettgeri M 1771. Put plainly: in vitro antibacterial activity, microtitration dilution (MIC), Prot. rettgeri M 1771. To be noted: Providencia rettgeri, M1771, read-out: minimum inhibiting concentration (MIC).
Text: as §1, §2

The next assay has as its system Pseud. aeruginosa UI-18. The assay is described as follows: in vitro antibacterial activity, microtitration dilution (MIC), Pseud. aeruginosa UI-18. To be noted: Pseudomonas aeruginosa, UI18, read-out: minimum inhibiting concentration (MIC).
Text: as §1, §2

For another assay, the system named is Staph. aureus H 228. The assay is described as follows: in vitro antibacterial activity, microtitration dilution (MIC), Staph. aureus H 228. To be noted: Staphylococcus aureus, H228, read-out: minimum inhibiting concentration (MIC).
Text: as §1, §2

The next assay concerns Staph. aureus UC-76. Put plainly: in vitro antibacterial activity, microtitration dilution (MIC), Staph. aureus UC-76. To be noted: Staphylococcus aureus, UC76, read-out: minimum inhibiting concentration (MIC).
Text: as §1, §2

For a further assay, the system named is Strep. faecalis MGH-2. Put plainly: in vitro antibacterial activity, microtitration dilution (MIC), Strep. faecalis MGH-2. To be noted: Enterococcus faecalis, MGH2, read-out: minimum inhibiting concentration (MIC).
Text: as §1, §2

A further assay deals with Strep. pheumoniae SV-1. Put plainly: in vitro antibacterial activity, microtitration dilution (MIC), Strep. pneumoniae SV-1. To be noted: Streptococcus pneumoniae, SV1, read-out: minimum inhibiting concentration (MIC).
Text: as §1, §2

The next assay concerns Strep. pyogenes C-203. Put plainly: in vitro antibacterial activity, microtitration dilution (MIC), Strep. pyogenes C-203. To be noted: Streptococcus pyogenes, C203, read-out: minimum inhibiting concentration (MIC).
Text: as §1, §2

In brackets after ≈: the same amount, converted by molar mass.

Regarding `CCN[C@H](C)[C@H]1CCN(c2c(F)cc3c(=O)c(C(=O)O)cn(C4CC4)c3c2OC)C1` [Example 19, 3S,1R-1-cyclopropyl-6-fluoro-7-[3-(1-N-ethylaminoethyl)1-pyrrolidinyl]-8-methoxy-1,4-dihydro-4-oxo-3-quinolinecarboxylic acid], the MIC in the assay on Ent. cloacae MA2646 is 0.4 µg/mL (≈ 0.958 µM); in the assay with Esch. coli Vogel it was 0.4 µg/mL (≈ 0.958 µM); in the assay on Klebs. pneumoniae MGH-2, 0.8 µg/mL (≈ 1.92 µM); in the assay on Prot. rettgeri M 1771 it was 1.6 µg/mL (≈ 3.83 µM); with Pseud. aeruginosa UI-18 it was 6.3 µg/mL (≈ 15.1 µM); with Staph. aureus H 228, 0.1 µg/mL (≈ 0.24 µM). Further, the MIC amounted to 0.05 µg/mL (≈ 0.12 µM) with Staph. aureus UC-76, 0.1 µg/mL (≈ 0.24 µM) in the assay on Strep. faecalis MGH-2, 0.013 µg/mL (≈ 0.0311 µM) in the assay on Strep. pheumoniae SV-1 and 0.025 µg/mL (≈ 0.0599 µM) with Strep. pyogenes C-203.

With `CCN[C@H](C)[C@@H]1CCN(c2nc3c(cc2F)c(=O)c(C(=O)O)cn3-c2ccc(F)cc2F)C1` [Example 51, 3R,1R-7-[3-(1-N-ethylaminoethyl)-1-pyrrolidinyl]-1-(2,4-difluorophenyl)-6-fluoro-1,4-dihydro-4-oxo-1,8-naphthyridine-3-carboxylic acid], the MIC with Ent. cloacae MA2646 was 0.8 µg/mL (≈ 1.74 µM); in the assay with Esch. coli Vogel, 0.8 µg/mL (≈ 1.74 µM); with Klebs. pneumoniae MGH-2, 1.6 µg/mL (≈ 3.47 µM); in the assay with Prot. rettgeri M 1771, 3.1 µg/mL (≈ 6.73 µM); with Pseud. aeruginosa UI-18, more than 3.1 µg/mL; with Staph. aureus H 228, 0.2 µg/mL (≈ 0.434 µM). Also, the MIC was 0.05 µg/mL (≈ 0.109 µM) in the assay with Staph. aureus UC-76, 0.4 µg/mL (≈ 0.869 µM) in the assay with Strep. faecalis MGH-2, 0.2 µg/mL (≈ 0.434 µM) in the assay on Strep. pheumoniae SV-1 and 0.2 µg/mL (≈ 0.434 µM) in the assay with Strep. pyogenes C-203.

On to `COc1c(N2CC[C@@H]([C@H](C)N)C2)c(F)cc2c(=O)c(C(=O)O)cn(C3CC3)c12` [Example 44, 3R,1S-7-[3-(1-aminoethyl)-1-pyrrolidinyl]-1-cyclopropyl-6-fluoro-1,4-dihydro-8-methoxy-4-oxo-3-quinolinecarboxylic acid], for which the MIC in the assay with Ent. cloacae MA2646 came to 0.05 µg/mL (≈ 0.128 µM); in the assay with Esch. coli Vogel, 0.025 µg/mL (≈ 0.0642 µM); with Klebs. pneumoniae MGH-2, 0.05 µg/mL (≈ 0.128 µM); in the assay with Prot. rettgeri M 1771, 0.05 µg/mL (≈ 0.128 µM); with Pseud. aeruginosa UI-18, 0.4 µg/mL (≈ 1.03 µM); in the assay on Staph. aureus H 228 it was 0.006 µg/mL (≈ 0.0154 µM). Moreover, the MIC was not above 0.003 µg/mL with Staph. aureus UC-76, 0.006 µg/mL (≈ 0.0154 µM) in the assay on Strep. faecalis MGH-2, not above 0.003 µg/mL with Strep. pheumoniae SV-1 and not above 0.003 µg/mL in the assay with Strep. pyogenes C-203.

In the case of `C[C@H](N)[C@@H]1CCN(c2c(F)cc3c(=O)c(C(=O)O)cn(C4CC4)c3c2C(F)(F)F)C1` [Example 60, 3R,1S-7-[3-(1-aminoethyl)-1-pyrrolidinyl]-1-cyclopropyl-6-fluoro-1,4-dihydro-4-oxo-8-trifluoromethyl-3-quinolinecarboxylic acid], the MIC in the assay on Ent. cloacae MA2646 is 0.2 µg/mL (≈ 0.468 µM); with Esch. coli Vogel, 0.2 µg/mL (≈ 0.468 µM); in the assay on Klebs. pneumoniae MGH-2, 0.2 µg/mL (≈ 0.468 µM); in the assay on Prot. rettgeri M 1771, 0.4 µg/mL (≈ 0.936 µM); with Pseud. aeruginosa UI-18, 1.6 µg/mL (≈ 3.74 µM); in the assay with Staph. aureus H 228, 0.013 µg/mL (≈ 0.0304 µM). Further, the MIC with Staph. aureus UC-76 stood at 0.006 µg/mL (≈ 0.014 µM); in the assay with Strep. faecalis MGH-2, 0.025 µg/mL (≈ 0.0585 µM); with Strep. pheumoniae SV-1, 0.006 µg/mL (≈ 0.014 µM); in the assay with Strep. pyogenes C-203, 0.006 µg/mL (≈ 0.014 µM).

`CN[C@@H](C)[C@@H]1CCN(c2c(F)c(C)c3c(=O)c(C(=O)O)cn(C4CC4)c3c2OC)C1` [Example 61, 3R,1S-1-cyclopropyl-6-fluoro-7-[3-(1-N-methylaminoethyl)-1-pyrrolidinyl]-5-methyl-8-methoxy-1,4-dihydro-4-oxo-3-quinolinecarboxylic acid]: the MIC with Ent. cloacae MA2646 came out at 0.1 µg/mL (≈ 0.24 µM); with Esch. coli Vogel, 0.1 µg/mL (≈ 0.24 µM); in the assay with Klebs. pneumoniae MGH-2 it was 0.2 µg/mL (≈ 0.479 µM); in the assay on Prot. rettgeri M 1771, 0.4 µg/mL (≈ 0.958 µM); in the assay on Pseud. aeruginosa UI-18, 1.6 µg/mL (≈ 3.83 µM); with Staph. aureus H 228 it was 0.006 µg/mL (≈ 0.0144 µM). Besides, the MIC in the assay on Staph. aureus UC-76 was not above 0.003 µg/mL; in the assay on Strep. faecalis MGH-2, 0.025 µg/mL (≈ 0.0599 µM); in the assay on Strep. pheumoniae SV-1, not above 0.003 µg/mL; with Strep. pyogenes C-203 it was not above 0.003 µg/mL.

In the case of `CN[C@H](C)[C@@H]1CCN(c2cc3c(c(C)c2F)c(=O)c(C(=O)O)cn3-c2ccc(F)cc2F)C1` [Example 63], the MIC was 0.4 µg/mL (≈ 0.871 µM) in the assay with Ent. cloacae MA2646; 0.4 µg/mL (≈ 0.871 µM) in the assay on Esch. coli Vogel; 0.4 µg/mL (≈ 0.871 µM) in the assay on Klebs. pneumoniae MGH-2; 0.8 µg/mL (≈ 1.74 µM) in the assay with Prot. rettgeri M 1771; 3.1 µg/mL (≈ 6.75 µM) with Pseud. aeruginosa UI-18; 0.1 µg/mL (≈ 0.218 µM) with Staph. aureus H 228. For the same compound, the MIC turned out to be 0.05 µg/mL (≈ 0.109 µM) in the assay on Staph. aureus UC-76, 0.2 µg/mL (≈ 0.435 µM) in the assay with Strep. faecalis MGH-2, 0.2 µg/mL (≈ 0.435 µM) with Strep. pheumoniae SV-1 and 0.2 µg/mL (≈ 0.435 µM) in the assay with Strep. pyogenes C-203.

As for `CN[C@@H](C)[C@H]1CCN(c2c(F)c(N)c3c(=O)c(C(=O)O)cn(C4CC4)c3c2F)C1` [Example 35, 3S,1S-5-amino-1-cyclopropyl-6,8-difluoro-7-[3-(1-N-methylaminoethyl)-1-pyrrolidinyl]-1,4-dihydro-4-oxo-3-quinolinecarboxylic acid], the MIC with Ent. cloacae MA2646 stood at 0.2 µg/mL (≈ 0.492 µM); with Esch. coli Vogel, 0.2 µg/mL (≈ 0.492 µM); in the assay with Klebs. pneumoniae MGH-2, 0.8 µg/mL (≈ 1.97 µM); in the assay on Prot. rettgeri M 1771, 0.8 µg/mL (≈ 1.97 µM); with Pseud. aeruginosa UI-18 it was 3.1 µg/mL (≈ 7.63 µM); with Staph. aureus H 228, 0.1 µg/mL (≈ 0.246 µM). Further, the MIC in the assay on Staph. aureus UC-76 amounted to 0.05 µg/mL (≈ 0.123 µM); with Strep. faecalis MGH-2, 0.2 µg/mL (≈ 0.492 µM); in the assay with Strep. pheumoniae SV-1, 0.2 µg/mL (≈ 0.492 µM); with Strep. pyogenes C-203, 0.2 µg/mL (≈ 0.492 µM).

The values are drawn from patent US5563155A, “Individual stereosiomers of 7-[3-(aminoalkyl)-1-pyrrolidinyl]-quinolones and naphthyridones as antibacterial agents” (Warner-Lambert Company, priority 1995, dated 1996).
